Results as given in patent US11406590B2, “Essential oil emulsion nostril treatment composition” (King Abdulaziz University, priority 2020, dated 2022).

Test system: Salmonella enterica subsp. Enterica serovar typhimurium (ATCC 29629, TA 1535)
Test: Ames test of liposomal preparation
Assay type: cell-based
Details: 20 and 200 nmol
Method: To evaluate the safety of the liposomal preparation described in Example 1, the Ames test is performed according to the procedure described by, and incorporated by reference to, Ames et al, Carcinogens are mutagens: their detection and classification. Environ Health Perspect. 1973 December; 6:115-8; Mortelmans and Zeiger, The Ames Salmonella/microsome mutagenicity assay. Mutat Res. 2000 Nov. 20; 455(1-2):29-60.
Briefly, the test organism Salmonella enterica subsp. Enterica serovar typhimurium (ATCC® 29629-Strain Designations: TA 1535), an auxotrophic mutant, is provided by ATCC, Manassas, USA. This auxotrophic isolate has a mutation in its DNA which prevents it from producing histidine and thus requires histidine for its growth.
Potentially mutagenic substances are identified by contacting them with this auxotrophic mutant and measuring the frequency of mutations that restore the ability of this auxotroph to grown a medium not containing histidine. […]
A degree of mutagenicity of the liposome preparation is determined by comparison of the number of colonies appearing on the negative and positive controls and the number of colonies on the solid medium containing different concentrations of the liposome preparation containing the essential oil-in-water emulsion of Example 1.

SMILES: CC[n+]1c(-c2ccccc2)c2cc(N)ccc2c2ccc(N)cc21 [ethidium bromide]
- Colony counts on positive control plates: significant increase
